Results from PubChem BioAssay AID1259411 (Chemical Carcinogenesis Research Information System (CCRIS), 2018).
Activity calls are given as the source filed them. The rule behind the calls is not given here.

System: rodent carcinogenicity bioassays, tumor incidence
Assay: CCRIS carcinogenicity studies
In short: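 Archive of carcinogenicity, mutagenicity, tumor promotion and tumor inhibition results drawn from journals, NCI reports and other sources, expert-reviewed; covers 1985-2011 and is no longer updated.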

## Nc1ccc2cc3ccccc3cc2c1
Species: HAMSTER, Strain/Sex: SYRIAN, Route: DERMAL, Dose: 4 DROPS OF 1% SOLN IN ACETONE 2/WK FOR 10 WK, 8 DROPS FOR 40 WK, 4 DROPS FOR 5 WK, Tumor Site: Type of Lesion: INTEGUMENTARY SYSTEM (SKIN): PAPILLOMA, EPIDERMAL TUMOR
  carcinogen call: active; positive
Species: MOUSE, Strain/Sex: MALE,FEMALE, Route: DERMAL, Dose: 1% SATURATED SOLN IN ACETONE 2/WK (0.025 ML FOR 30 D OR 0.1 ML FOR 140 D), THEN 0.05 ML THEREAFTER, Tumor Site: Type of Lesion: INTEGUMENTARY SYSTEM (SKIN): SQUAMOUS CELL EPITHELIOMA
  carcinogen call: active; positive
Species: RAT, Strain/Sex: ALBINO/MALE, Route: DERMAL, Dose: 1% IN ACETONE 2/WK FOR 34-36 WK, Tumor Site: Type of Lesion: INTEGUMENTARY SYSTEM (SKIN): SQUAMOUS CELL CARCINOMA, BASAL CELL EPITHELIOMA, FIBROSARCOMA
  carcinogen call: active; positive
Species: RAT, Strain/Sex: F344/MALE,FEMALE, Route: DERMAL, Dose: 0.18 ML OF 1% SOLN IN ACETONE 2/WK FOR 180 OR 250-300 D, Tumor Site: Type of Lesion: INTEGUMENTARY SYSTEM (SKIN): SQUAMOUS CELL CARCINOMA, BASAL CELL EPITHELIOMA, FIBROSARCOMA
  carcinogen call: active; positive
Species: RAT, Strain/Sex: HOLTZMAN/MALE,FEMALE, Route: DERMAL, Dose: 0.18 ML OF 1% SOLN IN ACETONE 2/WK FOR 180 OR 250-300 D, Tumor Site: Type of Lesion: INTEGUMENTARY SYSTEM (SKIN): SQUAMOUS CELL CARCINOMA, BASAL CELL EPITHELIOMA, FIBROSARCOMA
  carcinogen call: active; positive
Species: RAT, Strain/Sex: LONG-EVANS/MALE,FEMALE, Route: DERMAL, Dose: 0.18 ML OF 1% SOLN IN ACETONE 2/WK FOR 180 OR 250-300 D, Tumor Site: Type of Lesion: INTEGUMENTARY SYSTEM (SKIN): SQUAMOUS CELL CARCINOMA, BASAL CELL EPITHELIOMA, FIBROSARCOMA
  carcinogen call: active; positive
Species: RAT, Strain/Sex: SPRAGUE-DAWLEY/FEMALE, Route: GAVAGE, Dose: 0.05, 1.0, 2.5 MG IN 1 ML SESAME OIL 1/3 D FOR 10 D (TOTAL DOSE 0.5-25 MG), Dose: 0.05, 1.0, 2.5 MG IN 1 ML SESAME OIL 1/3 D FOR 10 D (TOTAL DOSE 0.5-25 MG), Tumor Site: Type of Lesion: MAMMARY GLAND
  carcinogen call: active; positive

## COc1ccc([N+](=O)[O-])cc1N=Nc1c(O)c(C(=O)Nc2cccc([N+](=O)[O-])c2)cc2ccccc12
Species: MOUSE, Strain/Sex: B6C3F1/FEMALE, Route: ORAL, Dose: 0, 10000, 25000, 50000 PPM IN DIET FOR 720 D (STUDY DURATION: 104 WK), Dose: 0, 10000, 25000, 50000 PPM IN DIET FOR 720 D (STUDY DURATION: 104 WK)
  carcinogen call: inactive; negative
Species: MOUSE, Strain/Sex: B6C3F1/MALE, Route: ORAL, Dose: 0, 10000, 25000, 50000 PPM IN DIET FOR 720 D (STUDY DURATION: 104 WK), Dose: 0, 10000, 25000, 50000 PPM IN DIET FOR 720 D (STUDY DURATION: 104 WK)
  carcinogen call: inactive; negative
Species: RAT, Strain/Sex: F344/FEMALE, Route: ORAL, Dose: 0, 10000, 25000, 50000 PPM IN DIET FOR 720 D (STUDY DURATION: 105 WK), Dose: 0, 10000, 25000, 50000 PPM IN DIET FOR 720 D (STUDY DURATION: 105 WK)
  carcinogen call: inactive; negative
Species: RAT, Strain/Sex: F344/MALE, Route: ORAL, Dose: 0, 10000, 25000, 50000 PPM IN DIET FOR 103 WK (STUDY DURATION: 105 WK), Dose: 0, 10000, 25000, 50000 PPM IN DIET FOR 103 WK (STUDY DURATION: 105 WK), Tumor Site: Type of Lesion: KIDNEY: RENAL TUBULE ADENOMA OR CARCINOMA, MULTIPLE ORGANS: MONONUCLEAR CELL LEUKEMIA
  carcinogen call: equivocal

## O=[N+]([O-])c1ccc2c(c1)Cc1cc([N+](=O)[O-])ccc1-2
Species: Rat, Strain/Sex: Sprague-Dawley/Female (16/group), Route: Intraperitoneal, Dose: 10 umol/kg 3 times a wk for 4 wk (avg total dose 16.0 umol/rat), animals retained for up to 90 wk after last dosing (Tes, Tumor Site: Type of Lesion: Mammary Gland: % of rats with tumors (malignant 44, benign 38 vs 6 malignant, 53 benign in vehicle controls)
  carcinogen call: active; positive for malignant tumors only (p=0.02). dna adducts observed in mammary gla
Species: Rat, Strain/Sex: Sprague-Dawley/Female (17/group), Route: Oral, Dose: 10 umol/kg 3 times a wk for 4 wk (avg total dose 18.0 umol/rat), animals retained for up to 90 wk after last dosing (Tes, Tumor Site: Type of Lesion: Mammary Gland: % of rats with tumors (malignant 29, benign 53 vs 12 malignant, 53 benign in vehicle controls)
  carcinogen call: inactive; negative. dna adducts observed in mammary gland dna collected 24 hr after last d

## ClC#CCl
Species: MOUSE, Strain/Sex: NMRI/FEMALE, Route: INHALATION, Dose: 0, 2 PPM 6 HR/D 1 D/WK FOR 18 MO (STUDY DURATION: LIFE), Tumor Site: Type of Lesion: KIDNEY: CYSTADENOMA, LUNG: ADENOMA, HARDERIAN GLAND: CYSTADENOMA, Tumor Site: Type of Lesion: KIDNEY: CYSTADENOMA, LUNG: ADENOMA, HARDERIAN GLAND: CYSTADENOMA
  carcinogen call: active; positive
Species: MOUSE, Strain/Sex: NMRI/FEMALE, Route: INHALATION, Dose: 0, 2 PPM 6 HR/D 2 D/WK FOR 18 MO (STUDY DURATION: LIFE), Tumor Site: Type of Lesion: HARDERIAN GLAND: CYSTADENOMA
  carcinogen call: active; positive
Species: MOUSE, Strain/Sex: NMRI/FEMALE, Route: INHALATION, Dose: 0, 9 PPM 6 HR/D 1 D/WK FOR 12 MO (STUDY DURATION: LIFE), Tumor Site: Type of Lesion: KIDNEY: CYSTADENOMA, HARDERIAN GLAND: CYSTADENOMA
  carcinogen call: active; positive
Species: MOUSE, Strain/Sex: NMRI/MALE, Route: INHALATION, Dose: 0, 2 PPM 6 HR/D 1 D/WK FOR 18 MO (STUDY DURATION: LIFE), Tumor Site: Type of Lesion: KIDNEY: CYSTADENOMA, CYSTADENOCARCINOMA, HARDERIAN GLAND: CYSTADENOMA
  carcinogen call: active; positive
Species: MOUSE, Strain/Sex: NMRI/MALE, Route: INHALATION, Dose: 0, 2 PPM 6 HR/D 2 D/WK FOR 18 MO (STUDY DURATION: LIFE), Tumor Site: Type of Lesion: KIDNEY: CYSTADENOMA, HARDERIAN GLAND: CYSTADENOMA
  carcinogen call: active; positive
Species: MOUSE, Strain/Sex: NMRI/MALE, Route: INHALATION, Dose: 0, 9 PPM 6 HR/D 1 D/WK FOR 12 MO (STUDY DURATION: LIFE), Tumor Site: Type of Lesion: KIDNEY: CYSTADENOMA, CYSTADENOCARCINOMA
  carcinogen call: active; positive
Species: RAT, Strain/Sex: WISTAR/FEMALE, Route: INHALATION, Dose: 0, 14 PPM 6 HR/D 2 D/WK FOR 18 MO (STUDY DURATION: LIFE), Tumor Site: Type of Lesion: KIDNEY: CYSTADENOMA, LIVER: CHOLANGIOMA, HEMOPOIETIC SYSTEM: MALIGNANT LYMPHOMA, Tumor Site: Type of Lesion: KIDNEY: CYSTADENOMA, LIVER: CHOLANGIOMA, HEMOPOIETIC SYSTEM: MALIGNANT LYMPHOMA
  carcinogen call: active; positive
Species: RAT, Strain/Sex: WISTAR/MALE, Route: INHALATION, Dose: 0, 14 PPM 6 HR/D 2 D/WK FOR 18 MO (STUDY DURATION: LIFE), Tumor Site: Type of Lesion: KIDNEY: CYSTADENOMA, LIVER: CHOLANGIOMA
  carcinogen call: active; positive

## CCCCCCCCCCCCCCN(C)N=O
Species: RAT, Strain/Sex: F344/MALE, Route: GAVAGE, Dose: 0, 140 MG/ML IN CORN OIL 2/WK FOR 30 WK, STUDY DURATION: 110 WK, Dose: 0, 140 MG/ML IN CORN OIL 2/WK FOR 30 WK, STUDY DURATION: 110 WK, Tumor Site: Type of Lesion: BLADDER
  carcinogen call: active; positive
